Here are results for nine compounds from US20250115598A1 (Anaxis Pharma Pty Ltd, priority 2021, published 2025).

pIC50, pKd: −log10 of the molar value.

The DC50 is the midpoint of the concentration-degradation curve. In general, pIC50 refers to −log10 of the IC50, conventionally taken in molar units. A word on the pKd: it is the Kd on a negative log10 scale, so that one unit is a factor of ten.

The target of one assay is endogenous MLKL in MDF (Mus musculus (Mouse), UniProt Q9D2Y4). Description: Degradation assay: endogenous MLKL in MDF (western blot). The note with it: MDF cells, 24 h incubation with compound, MLKL adjusted for loading with GAPDH, normalized to DMSO only control, read-out: Degradation of endogenous MLKL in MDF (DC50 cell-based assay). Summed up: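 Western blot band intensity of MLKL, adjusted to GAPDH loading and normalized to DMSO-only wells, gave percent degradation. Compound exposure lasted 24 h at final concentrations of 10–0.016 μM in 1:5 steps, in mouse dermal fibroblasts or human U937 cells.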
Chain of endogenous MLKL in MDF (Q9D2Y4 whole entry): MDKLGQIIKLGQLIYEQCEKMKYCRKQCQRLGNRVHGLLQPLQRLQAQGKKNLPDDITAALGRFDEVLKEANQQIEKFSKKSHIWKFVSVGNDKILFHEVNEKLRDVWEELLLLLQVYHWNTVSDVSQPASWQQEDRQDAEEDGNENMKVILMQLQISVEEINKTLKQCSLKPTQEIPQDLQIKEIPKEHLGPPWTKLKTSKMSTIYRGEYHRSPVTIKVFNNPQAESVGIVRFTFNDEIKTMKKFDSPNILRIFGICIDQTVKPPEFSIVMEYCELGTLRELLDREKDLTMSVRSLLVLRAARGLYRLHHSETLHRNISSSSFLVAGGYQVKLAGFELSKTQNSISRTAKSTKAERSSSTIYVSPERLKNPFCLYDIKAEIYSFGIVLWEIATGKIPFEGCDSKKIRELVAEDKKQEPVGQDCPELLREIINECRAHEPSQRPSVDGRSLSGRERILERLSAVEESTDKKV
In general terms: In western blotting, separated proteins are transferred to a membrane and probed.

The target of the next assay is endogenous MLKL in U937 (Homo sapiens (Human), UniProt Q8NB16). Description: Degradation assay: endogenous MLKL in U937 (western blot). The following applies: U937, 24 h incubation, read-out: Degradation of endogenous MLKL in U937 (DC50 cell-based assay). How it is done:
Degradation Assay: Screening Compounds Procedure to Evaluate the Activity of Compounds in Degrading Endogenous MLKL in Human and Mouse Cell
The mouse dermal fibroblast (MDF) cell line was seeded the day before the experiment in a 24-well plate at a cell density of […] per well in a volume of 0.5 mL per well and left to attach overnight. The human monocyte cell line (U937) was seeded on the day of the experiment in a 24-well plate at a cell density of […] per well in a volume of 0.5 mL per well.
The compound was diluted in DMSO with a starting concentration of 10 mM and titrated stepwise with a dilution of 1:5. 0.5 μL of the compound dilution was added to the appropriate well to achieve a final concentration of 10; 2; 0.4; 0.08 and 0.016 μM. A DMSO only well was included as control.
The cells were incubated for 24 h in the presence of the compound at 37° C. and 10% CO2.
After the 24 h incubation period, the medium was removed and cells washed with 0.5 mL PBS. The cells were then lysed directly in 60 μL of 1×SDS gel loading buffer.
The cell lysate was heat-denatured at […] for 10 min. 10 μL of lysate per well were run on 18-well 4-15% Criterion TGX stain free gels (BIO-RAD). The proteins were then transferred onto nitrocellulose membrane with a wet transfer protocol in the Criterion Blotter (BIO-RAD).
Membranes were blocked with 5% skim milk in TBST. Primary antibody against MLKL (clone 3H1, MABC604 Merck) was used at 1:2000 dilution in TBST with 1% BSA and left shaking over night at 4° C. After washes with TBST, the membranes were incubated with goat anti-rat IgG HRP-conjugated antibody (Southern Biotech) in 1% skim milk TBST at 1:10000 dilution for 1 h at room temperature. After TBST washes the bands were imaged on the ChemiDoc MP Imaging System (BIO-RAD) with Immobilion Western Chemiluminescent HRP Substrate Forte (Millipore). The loading control GAPDH was probed for with rabbit anti-GAPDH (CST 14C10) at 1:2000 dilution in 1% BSA TBST over night at 4° C. TBST washes were followed by incubation with goat anti-rabbit IgG HRP-conjugated antibody (Southern Biotech) in 1% skim milk TBST at 1:10000 dilution for 1 h at room temperature followed by TBST washes. The signal was detected as described above.
The band intensity was measured in the ImageLab Software (BIO-RAD) and the MLKL values adjusted for loading with GAPDH. The percentage of degradation was calculated by normalizing the compound treated values to the DMSO only control.

The subject of assay [1] is Immortalised Mouse Dermal Fibroblasts (MDFs). Description: Cellular assay: inhibition of TSI induced necroptosis, CellTitre-Glo viability. The following applies: Mus musculus, Fibroblast; MDF, 3 hours TSI cocktail, Table 27; read-out: Inhibition of TSI-induced necroptosis (IC50 cell-based assay) in MDF. Summed up:
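Necroptosis induced for 3 h with TSI: rhTNF 100 ng/ml, Smac mimetic 500 nM, caspase inhibitor IDN-6556 10 μM. Mouse dermal fibroblasts had received compound (36 μM top, ten three-fold steps) 30 min beforehand. ATP-based viability scaled between untreated and TSI-only wells; IC50 taken as 4-parameter curve inflection.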

Another assay concerns the target human MLKL (full length) (Homo sapiens (Human), UniProt Q8NB16). Briefly: KINOMEscan binding assay, human MLKL (full length). The following applies: hMLKL, Table 25; read-out: MLKL (KD). The method, boiled down: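 KINOMEscan competition binding using kinase-tagged T7 phage or HEK-293-produced DNA-tagged protein captured on ligand beads, with eluted protein quantified by qPCR. Compounds were run as an 11-point 3-fold series, top 30,000 nM, in 1% DMSO. Kd was fitted with the Hill equation, slope fixed at −1.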

Chain of human MLKL (full length) (Q8NB16 whole entry): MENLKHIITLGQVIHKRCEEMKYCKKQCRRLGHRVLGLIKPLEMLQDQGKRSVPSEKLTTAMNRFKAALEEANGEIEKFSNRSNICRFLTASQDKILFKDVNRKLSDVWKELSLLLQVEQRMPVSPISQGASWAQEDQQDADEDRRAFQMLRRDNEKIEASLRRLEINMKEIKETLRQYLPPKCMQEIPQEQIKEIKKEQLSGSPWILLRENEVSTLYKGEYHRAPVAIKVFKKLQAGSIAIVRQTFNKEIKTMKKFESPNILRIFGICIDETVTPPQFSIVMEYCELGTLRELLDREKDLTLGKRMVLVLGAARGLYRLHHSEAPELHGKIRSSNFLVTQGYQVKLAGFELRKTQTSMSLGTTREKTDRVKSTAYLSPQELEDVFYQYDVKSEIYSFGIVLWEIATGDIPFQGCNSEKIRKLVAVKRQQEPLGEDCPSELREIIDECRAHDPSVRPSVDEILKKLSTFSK
Chain of endogenous MLKL in U937 (Q8NB16 whole entry): as above

Take `C[C@H](Oc1cc(-c2nn(C)c3c(-c4cnn(C5CCN(C(=O)[C@H]6C[C@H]6C6CCN(c7cccc8c7C(=O)N(C7CCC(=O)NC7=O)C8=O)CC6)CC5)c4)cnc(N)c23)ccc1NS(=O)(=O)C(F)F)c1ccc(F)cc1` (stereo in doubt) [Compound 1129, N-[4-(4-amino-7-{1-[1-(2-{1-[2-(2,6-dioxopiperidin-3-yl)-1,3-dioxo-2,3-dihydro-1H-isoindol-4-yl]piperidin-4-yl}-(cis)-cyclopropanecarbonyl)piperidin-4-yl]-1H-pyrazol-4-yl}-1-methyl-1H-pyrazolo[4,3-c]pyridin-3-yl)-2-[(1S)-1-(4-fluorophenyl)ethoxy]phenyl]-1,1-difluoromethane-sulfonamide]: the 50% degradation concentration (DC50) at endogenous MLKL in MDF and on endogenous MLKL in U937 was under 1 µM in each case. Besides, in assay [1], the negative logarithm of the IC50 (pIC50) is over 6.00. Further, on human MLKL (full length), the pKd is 6.00 to 8.00.

On to `C[C@H](Oc1cc(-c2nn(C)c3c(-c4cnn(C5CCN(C(=O)[C@H]6C[C@@H]6C6CCN(c7cccc8c7C(=O)N(C7CCC(=O)NC7=O)C8=O)CC6)CC5)c4)cnc(N)c23)ccc1NS(=O)(=O)C(F)F)c1ccc(F)cc1` (stereo in doubt) [Compound 1130, N-[4-(4-amino-7-{1-[1-(2-{1-[2-(2,6-dioxopiperidin-3-yl)-1,3-dioxo-2,3-dihydro-1H-isoindol-4-yl]piperidin-4-yl}-(trans)-cyclopropanecarbonyl)piperidin-4-yl]-1H-pyrazol-4-yl}-1-methyl-1H-pyrazolo[4,3-c]pyridin-3-yl)-2-[(1S)-1-(4-fluorophenyl)ethoxy]phenyl]-1,1-difluoromethane-sulfonamide], for which the half-maximal degradation concentration (DC50) on endogenous MLKL in MDF and at endogenous MLKL in U937 was under 1 µM throughout. Further, in assay [1], the pIC50 is over 6.00. Further, the negative-log Kd (pKd) at human MLKL (full length) is 6.00 to 8.00.

With `Cc1ncsc1-c1ccc(CNC(=O)[C@@H]2C[C@@H](O)CN2C(=O)[C@@H](NC(=O)CCCCCOc2ccc(-c3cnc(N)c4c(-c5ccc(NS(=O)(=O)C(F)F)c(O[C@@H](C)c6ccc(F)cc6)c5)nn(C)c34)cc2)C(C)(C)C)cc1` [Compound 1042, (2S,4R)-1-[(2S)-2-[6-(4-{4-amino-3-[4-(difluoromethanesulfonamido)-3-[(1S)-1-(4-fluorophenyl)ethoxy]phenyl]-1-methyl-1H-pyrazolo[4,3-c]pyridin-7-yl}phenoxy)hexanamido]-3,3-dimethylbutanoyl]-4-hydroxy-N-{[4-(4-methyl-1,3-thiazol-5-yl)phenyl]methyl}pyrrolidine-2-carboxamide], the DC50 on endogenous MLKL in MDF and on endogenous MLKL in U937 was under 1 µM throughout. The negative logarithm of the IC50 (pIC50) in assay [1] was 5.00 to 6.00. At human MLKL (full length), the negative-log Kd (pKd) was 6.00 to 8.00.

Regarding `C[C@H](Oc1cc(-c2nn(C)c3c(-c4cnn(C5CCN(C(=O)C6CCN(c7cccc8c7C(=O)N(C7CCC(=O)NC7=O)C8=O)CC6)CC5)c4)cnc(N)c23)ccc1NS(=O)(=O)C(F)F)c1ccc(F)cc1` (stereo partly drawn) [Compound 1044, N-(4-{4-amino-7-[1-(1-{1-[2-(2,6-dioxopiperidin-3-yl)-1,3-dioxo-2,3-dihydro-1H-isoindol-4-yl]piperidine-4-carbonyl}piperidin-4-yl)-1H-pyrazol-4-yl]-1-methyl-1H-pyrazolo [4,3-c]pyridin-3-yl}-2-[(1S)-1-(4-fluorophenyl)ethoxy]phenyl)-1,1-difluoromethanesulfonamide], the half-maximal degradation concentration (DC50) on endogenous MLKL in MDF and at endogenous MLKL in U937 was under 1 µM in each case. Moreover, in assay [1], the pIC50 is over 6.00. Further, the pKd at human MLKL (full length) was over 8.00.

For the compound `Cc1ncsc1-c1ccc(CNC(=O)[C@@H]2C[C@@H](O)CN2C(=O)[C@@H](NC(=O)COCCCCn2cc(-c3cnc(N)c4c(-c5ccc(NS(=O)(=O)C(F)F)c(O[C@@H](C)c6ccc(F)cc6)c5)nn(C)c34)cn2)C(C)(C)C)cc1` [Compound 1056, (2S,4R)-1-[(2S)-2-{2-[4-(4-{4-amino-3-[4-(difluoromethanesulfonamido)-3-[(1S)-1-(4-fluorophenyl)ethoxy]phenyl]-1-methyl-1H-pyrazolo[4,3-c]pyridin-7-yl}-1H-pyrazol-1-yl)butoxy]acetamido}-3,3-dimethylbutanoyl]-4-hydroxy-N-{[4-(4-methyl-1,3-thiazol-5-yl)phenyl]methyl}pyrrolidine-2-carboxamide], the results for the DC50 at endogenous MLKL in MDF and at endogenous MLKL in U937 were 1 to 10 µM and under 1 µM, respectively. For the same compound, on human MLKL (full length), the negative-log Kd (pKd) was 6.00 to 8.00.

Take `CCS(=O)(=O)Nc1ccc(-c2nn(C)c3c(-c4cnn(CCCCCCCOc5cccc6c5C(=O)N(C5CCC(=O)NC5=O)C6=O)c4)cnc(N)c23)cc1F` (stereo not shown) [Compound 1059, N-(4-{4-amino-7-[1-(7-{[2-(2,6-dioxopiperidin-3-yl)-1,3-dioxo-2,3-dihydro-1H-isoindol-4-yl]oxy}heptyl)-1H-pyrazol-4-yl]-1-methyl-1H-pyrazolo[4,3-c]pyridin-3-yl}-2-fluorophenyl)ethane-1-sulfonamide]: the DC50 on endogenous MLKL in MDF and at endogenous MLKL in U937 was under 1 µM in each case. For the same compound, the pKd on human MLKL (full length) is over 8.00.

On to `Cc1ncsc1-c1ccc(C(COCC(=O)N2CCC(n3cc(-c4cnc(N)c5c(-c6ccc(NS(=O)(=O)C(F)F)c(O[C@@H](C)c7ccc(F)cc7)c6)nn(C)c45)cn3)CC2)NC(=O)[C@@H]2C[C@@H](O)CN2C(=O)[C@@H](NC(=O)C2(F)CC2)C(C)(C)C)cc1` (stereo partly drawn) [Compound 1104, (2S,4R)—N-(2-{2-[4-(4-{4-amino-3-[4-(difluoromethanesulfonamido)-3-[(1 S)-1-(4-fluorophenyl)ethoxy]phenyl]-1-methyl-1H-pyrazolo[4,3-c]pyridin-7-yl}-1H-pyrazol-1-yl)piperidin-1-yl]-2-oxoethoxy}-1-[4-(4-methyl-1,3-thiazol-5-yl)phenyl]ethyl)-1-[(2S)-2-[(1-fluorocyclopropyl)formamido]-3,3-dimethylbutanoyl]-4-hydroxypyrrolidine-2-carboxamide], for which the 50% degradation concentration (DC50) at endogenous MLKL in MDF and on endogenous MLKL in U937 was under 1 µM throughout. Further, the pIC50 in assay [1] is 5.00 to 6.00.

For the compound `Cn1nc(-c2ccc(NS(=O)(=O)C(F)F)c(F)c2)c2c(N)ncc(-c3cnn(C4CCN(C(=O)[C@H]5C[C@H](Nc6cccc7c6C(=O)N(C6CCC(=O)NC6=O)C7=O)C5)CC4)c3)c21` (stereo partly drawn) [Compound 1114, N-{4-[4-amino-1-methyl-7-(1-{1-[(trans)-3-{[2-(2,6-dioxopiperidin-3-yl)-1,3-dioxo-2,3-dihydro-1H-isoindol-4-yl]amino}cyclobutanecarbonyl]piperidin-4-yl}-1H-pyrazol-4-yl)-1H-pyrazolo[4,3-c]pyridin-3-yl]-2-fluorophenyl}-1,1-difluoromethanesulfonamide], the DC50 on endogenous MLKL in MDF and on endogenous MLKL in U937 was under 1 µM each time. In addition, the pKd at human MLKL (full length) was over 8.00.

`C[C@H](Oc1cc(-c2nn(C)c3c(-c4cnn(C5CCN(C(=O)N6CC(Nc7cccc8c7C(=O)N(C7CCC(=O)NC7=O)C8=O)C6)CC5)c4)cnc(N)c23)ccc1NS(=O)(=O)C(F)F)c1ccc(F)cc1` (stereo partly drawn) [Compound 1124, N-[4-(4-amino-7-{1-[1-(3-{[2-(2,6-dioxopiperidin-3-yl)-1,3-dioxo-2,3-dihydro-1H-isoindol-4-yl]amino}azetidine-1-carbonyl)piperidin-4-yl]-1H-pyrazol-4-yl}-1-methyl-1H-pyrazolo[4,3-c]pyridin-3-yl}-2-[(1S)-1-(4-fluorophenyl)ethoxy]phenyl]-1,1-difluoromethanesulfonamide]: the DC50 on endogenous MLKL in MDF and at endogenous MLKL in U937 was under 1 µM in each case. Moreover, the negative-log IC50 (pIC50) in assay [1] is over 6.00.
